Assay results as given in patent US20030206968A1, “Fungicidal mixtures” (priority 1999, published 2003).

Tests used:
Format in all cases: in vivo
Alternaria solani = experiment: Greenhouse, Alternaria solani on tomatoes, 1 day residual; conditions: Example 25; rate 16 g/ha
Protocol: (§1) The trials are carried out under greenhouse (Examples 1 to 32) or field conditions (Examples 33 to 40) in residual or curative applications. The fungicides are applied in single treatments, or in a combination comprising an azolopyrimidine of formula I and a compound selected from the classes (A), (B) and (C) as defined above. The compounds are applied in form of an aqueous spray mix obtained from a concentrated formulation or the technical material.
(§2) 1. Seed is planted in 6 cm diameter plastic pots and maintained in the greenhouse.
(§3) 2. When the primary leaf is fully expanded in the case of cereals or several leaves are present in the case of dicots, formulated test compounds are sprayed with a three nozzle overhead fungicide sprayer to near run-off. Alternatively, a single nozzle overhead track sprayer is used for application of the compounds to cereals at a rate of 200 l/ha. Plants are then allowed to air-dry.
(§4) 3. Inoculation precedes treatment in the case of curative evaluations and follows treatment in case of residual evaluations. For inoculation of powdery mildew disease, plants are set up on greenhouse benches with bottom watering mats and inoculated by dusting them with conidia from infected plants. Between inoculation and treatment for curative evaluations and between treatment and inoculation for residual evaluations, plants are maintained in the greenhouse with bottom watering.
(§5) For inoculation of non-powdery mildew diseases, an aqueous spore suspension of the pathogen is applied to the plant and the plants are kept 1-2 days in a moist infection chamber before being returned to the greenhouse where they are maintained by bottom watering.
(§6) 4. Disease on the foliage as percent leaf area with disease symptoms/signs is evaluated about 7 days after inoculation. In the case of wheat, the tips and bases of the leaves are excluded from the evaluation. [formula]
(§7) 1. Technical compounds are formulated in a solvent/surfactant system consisting of 5% acetone and 0.05% Tween 20 in deionized water. Compounds are dissolved in acetone prior to addition of the water; the Tween 20 can be added through either the acetone or the water. Dilutions are made using the solvent/surfactant system. Formulated compounds are prepared using deionized water.
(§8) 2. Two kinds of controls are included: Plants treated with the solvent/surfactant solution and inoculated (Solvent Blank). Untreated plants which are inoculated (Inoculated Control).
(§9) Assessments of the diseases took place at the indicated day after the application of the compounds. Per cent infected leaf area infected was evaluated. The efficacy of the compounds/compounds mixtures to control the diseases was calculated by using the formula given above under item 4: […]
(§10) Synergy was calculated using the % disease control values of specific treatments for the two COLBY formula given hereinabove
Fungicidal efficacy of the mixture of Azolopyrimidine C and different fungicides (1 day residual) against Alternaria solani on tomatoes The tank mix was obtained from an SC formulation containing 100 g Azolopyrimidine A per liter and WP formulations of dithianon (750 g/kg), captan (500 g/kg), cyprodinil (750 g/kg), mancozeb (800 g/kg), or a SC formulation of chlorothalonil (500 g/l), or a FS formulation of fenpiclonil (400 g/l), spectively.

Leptosphaeria nodorum = experiment: Greenhouse, Leptosphaeria nodorum on wheat, 3 day residual; conditions: Example 1
Protocol: as §1, §2, §3, §4, §5, §6, §7, §8, §9, §10
Fungicidal efficacy of the mixture of Azolopyrimidine A+fenpropimorph (3 day residual) against Leptosphaeria nodorum on wheat The tank mix was obtained from technical material of Azolopyrimidine A and an EC formulation containing 750 g fenpropimorph per liter.
Fungicidal efficacy of the mixture of Azolopyrimidine A+tebuconazole (3 day residual) against Leptosphaeria nodorum on wheat The tank mix was obtained from technical material of Azolopyrimidine A and an EC formulation containing 250 g tebuconazole per liter.

Blumeria graminis [1] = experiment: Greenhouse, Blumeria graminis on barley, 2 days curative; conditions: Example 29
Protocol: as §1, §2, §3, §4, §6, §7, §8, §9, §10
Fungicidal efficacy of the mixture of (S)-Azolopyrimidine C in admixture with Fenhexamid (2 days curative) against Blumeria graminis on barley. The tank mixes were obtained from technical material of (S)-Azolopyrimidine C and Fenhexamid.
Fungicidal efficacy of the mixture of (S)-Azolopyrimidine C in admixture with Azoxystrobin or Trifloxystrobin (2 days curative) against Blumeria graminis on barley. The tank mixes were obtained from technical material of (S)-Azolopyrimidine C and Azoxystrobin or Trifloxystrobin.

Blumeria graminis [2] = experiment: Greenhouse, Blumeria graminis on wheat, 2 days curative; conditions: Example 27
Protocol: as §1, §2, §3, §4, §6, §7, §8, §9, §10
Fungicidal efficacy of the mixture of (S)-Azolopyrimidine C in admixture with Azoxystrobin or Trifloxystrobin (2 days curative) against Blumeria graminis on wheat. The tank mixes were obtained from technical material of (S)-Azolopyrimidine C and Azoxystrobin or Trifloxystrobin.

Puccinia recondita [3] = experiment: Greenhouse, Puccinia recondita on wheat, 2 days curative; conditions: Example 28
Protocol: as §1, §2, §3, §4, §5, §6, §7, §8, §9, §10
Fungicidal efficacy of the mixture of (S)-Azolopyrimidine C in admixture with Azoxystrobin or Trifloxystrobin (2 days curative) against Puccinia recondita on wheat. The tank mixes were obtained from technical material of (S)-Azolopyrimidine C and Azoxystrobin or Trifloxystrobin.

Blumeria graminis [4] = experiment: Greenhouse, Blumeria graminis on wheat, 4 days residual; conditions: Example 30
Protocol: as §1, §2, §3, §4, §6, §7, §8, §9, §10
Fungicidal efficacy of the mixture of (S)-Azolopyrimidine C in admixture with Azoxystrobin or Trifloxystrobin (4 days residual) against Blumeria graminis on wheat. The tank mixes were obtained from technical material of (S)-Azolopyrimidine C and Azoxystrobin or Trifloxystrobin.

Puccinia recondita [5] = experiment: Greenhouse, Puccinia recondita on wheat, 4 days residual; conditions: Example 31
Protocol: as §1, §2, §3, §4, §5, §6, §7, §8, §9, §10
Fungicidal efficacy of the mixture of (S)-Azolopyrimidine C in admixture with Azoxystrobin or Trifloxystrobin (4 days residual) against Puccinia recondita on wheat. The tank mixes were obtained from technical material of (S)-Azolopyrimidine C and Azoxystrobin or Trifloxystrobin.

Erysiphe cichoracearum = experiment: Greenhouse, Erysiphe cichoracearum on cucumbers, 1 day residual; conditions: Example 23
Protocol: as §1, §2, §3, §4, §6, §7, §8, §9, §10
Fungicidal efficacy of the mixture of Azolopyrimidine C+triforine (1 day residual) against Erysiphe cichoracearum on cucumbers
the tank mix was obtained from a SC formulation containing 100 g of Azolopyrimidine C per liter and an DC formulation containing and 190 g of triforine per liter.
Fungicidal efficacy of the mixture of Azolopyrimidine C+cyprodinil (1 day residual) against Erysiphe cichoracearum on cucumbers The tank mix was obtained from a SC formulation containing 100 g of Azolopyrimidine C per liter and a WG formulation containing and 750 g of cyprodinil per kg.

Blumeria graminis [6] = experiment: Greenhouse, Blumeria graminis on barley, 4 days residual; conditions: Example 32
Protocol: as §1, §2, §3, §4, §6, §7, §8, §9, §10
Fungicidal efficacy of the mixture of (S)-Azolopyrimidine C in admixture with Azoxystrobin (4 days residual) against Blumeria graminis on barley. The tank mixes were obtained from technical material of (S)-Azolopyrimidine C and Azoxystrobin.

Blumeria graminis [7] = experiment: Field test, Blumeria graminis on wheat; conditions: azoxystrobin 75 g/ha alone, 17 days after application
Protocol: as §1
For the field study formulated Azolopyrimidine A, B or C and formulated compounds from the classes (A), (B) and (C) were used.
as §9, §10
The compounds are applied according to good agricultural practice in the form of an aqueous spray mix obtained from a concentrated formulation or the technical material at a rate of 400 l/ha. The disease control is evaluated according to the formula given for the greenhouse tests.
(§11) Fungicidal efficacy of the mixture of (S)-Azolopyrimidine C+cyproconazole in the field against Blumeria graminis on wheat 17 days after application The tank mix was obtained from a SC formulation containing 100 g (S)-Azolopyrimidine C per liter and an EC formulation containing 60 g cyproconazole per liter.
as §11, with “C+azoxystrobin” for “C+cyproconazole”, “a SC” for “an EC”, “250” for “60”, “azoxystrobin” for “cyproconazole”, “kg.” for “liter.”
Fungicidal efficacy of the mixture of Azolopyrimidine A and different cereal fungicides in the field against Blumeria graminis on wheat 15 days after application The tank mix was obtained from an SC formulation containing 100 g Azolopyrimidine A per liter and commercially available formulations of metconazole, epoxiconazole or kresoxim methyl, respectively.

| Molecule | Observed Efficacy (Alternaria solani) [%] | Observed Efficacy (Blumeria graminis [1]; dose rate 1.6 ppm) [%] | Observed Efficacy (Blumeria graminis [1]; dose rate 3.1 ppm) [%] | Observed Efficacy (Blumeria graminis [1]; dose rate 6.3 ppm) [%] | Observed Efficacy (Blumeria graminis [1]; dose rate 12.5 ppm) [%] | Observed Efficacy (Blumeria graminis [1]; dose rate 25 ppm) [%] | Observed Efficacy (Blumeria graminis [1]; dose rate 50 ppm) [%] | Observed Efficacy (Blumeria graminis [2]; dose rate 1.6 ppm) [%] | Observed Efficacy (Blumeria graminis [2]; dose rate 3.1 ppm) [%] | Observed Efficacy (Blumeria graminis [2]; dose rate 6.3 ppm) [%] | Observed Efficacy (Blumeria graminis [2]; dose rate 12.5 ppm) [%] | Observed Efficacy (Blumeria graminis [2]; dose rate 25 ppm) [%] | Observed Efficacy (Blumeria graminis [2]; dose rate 50 ppm) [%] | Observed Efficacy (Puccinia recondita [3]; dose rate 1.6 ppm) [%] | Observed Efficacy (Puccinia recondita [3]; dose rate 3.1 ppm) [%] | Observed Efficacy (Puccinia recondita [3]; dose rate 6.3 ppm) [%] | Observed Efficacy (Puccinia recondita [3]; dose rate 12.5 ppm) [%] | Observed Efficacy (Puccinia recondita [3]; dose rate 25 ppm) [%] | Observed Efficacy (Blumeria graminis [4]; dose rate 3.1 ppm) [%] | Observed Efficacy (Blumeria graminis [4]; dose rate 6.3 ppm) [%] | further results |
| --- | --- | --- | --- | --- | --- | --- | --- | --- | --- | --- | --- | --- | --- | --- | --- | --- | --- | --- | --- | --- | --- |
| N#Cc1sc2c(=O)c3ccccc3c(=O)c=2sc1C#N [dithianon] | 50 | – | – | – | – | – | – | – | – | – | – | – | – | – | – | – | – | – | – | – | – |
| CC(Cc1ccc(C(C)(C)C)cc1)CN1C[C@@H](C)O[C@@H](C)C1 (stereo partly shown) [fenpropimorph] | – | – | – | – | – | – | – | – | – | – | – | – | – | – | – | – | – | – | – | – | Observed Efficacy (Leptosphaeria nodorum; dose rate 0.5 ppm): 19%; Observed Efficacy (Leptosphaeria nodorum; dose rate 5 ppm): 15% |
| Trifloxystrobin | – | 22 | 36 | 59 | 74 | 89 | 96 | 34 | 55 | 78 | 89 | 98 | 99 | 0 | 0 | 0 | 0 | 0 | 0 | 0 | Observed Efficacy (Blumeria graminis [4]; dose rate 12.5 ppm): 0%; Observed Efficacy (Blumeria graminis [4]; dose rate 25 ppm): 0%; Observed Efficacy (Blumeria graminis [4]; dose rate 50 ppm): 14%; Observed Efficacy (Puccinia recondita [5]; dose rate 3.1 ppm): 0%; Observed Efficacy (Puccinia recondita [5]; dose rate 6.3 ppm): 0%; Observed Efficacy (Puccinia recondita [5]; dose rate 12.5 ppm): 0%; Observed Efficacy (Puccinia recondita [5]; dose rate 25 ppm): 0%; Observed Efficacy (Puccinia recondita [5]; dose rate 50 ppm): 0% |
| N#Cc1c[nH]cc1-c1cccc(Cl)c1Cl [fenpiclonil] | 76 | – | – | – | – | – | – | – | – | – | – | – | – | – | – | – | – | – | – | – | – |
| O=CNC(N1CCN(C(NC=O)C(Cl)(Cl)Cl)CC1)C(Cl)(Cl)Cl (stereo not shown) [triforine] | – | – | – | – | – | – | – | – | – | – | – | – | – | – | – | – | – | – | – | – | Observed Efficacy (Erysiphe cichoracearum; dose rate 4 ppm): 0%; Observed Efficacy (Erysiphe cichoracearum; dose rate 16 ppm): 15% |
| CO/C=C(/C(=O)OC)c1ccccc1Oc1cc(Oc2ccccc2C#N)ncn1 [Azoxystrobin] | – | 0 | 10 | 21 | 49 | 73 | 87 | 0 | 2 | 21 | 28 | 48 | 61 | 0 | 25 | 48 | 85 | 95 | 0 | 0 | Observed Efficacy (Blumeria graminis [4]; dose rate 12.5 ppm): 7%; Observed Efficacy (Blumeria graminis [4]; dose rate 25 ppm): 9%; Observed Efficacy (Blumeria graminis [4]; dose rate 50 ppm): 9%; Observed Efficacy (Puccinia recondita [5]; dose rate 3.1 ppm): 0%; Observed Efficacy (Puccinia recondita [5]; dose rate 6.3 ppm): 0%; Observed Efficacy (Puccinia recondita [5]; dose rate 12.5 ppm): 0%; Observed Efficacy (Puccinia recondita [5]; dose rate 25 ppm): 0%; Observed Efficacy (Puccinia recondita [5]; dose rate 50 ppm): 8%; Observed Efficacy (Blumeria graminis [6]; dose rate 1.6 ppm): 0%; Observed Efficacy (Blumeria graminis [6]; dose rate 3.1 ppm): 3%; Observed Efficacy (Blumeria graminis [6]; dose rate 6.3 ppm): 3%; Observed Efficacy (Blumeria graminis [6]; dose rate 12.5 ppm): 3%; Observed Efficacy (Blumeria graminis [6]; dose rate 25 ppm): 2%; Observed Efficacy (Blumeria graminis [6]; dose rate 50 ppm): 9%; Observed Efficacy (Blumeria graminis [7]): 49 |
